Experimental data published in US20260055061A1, “HALOPHTHALIMIDE COMPOUNDS AND METHODS OF USE AGAINST TBI, INFLAMMATORY DISORDER, AUTOIMMUNE DISORDER, NEURODEGENERATIVE DISEASE OR VIRAL INFECTION” (The United States of America, as represented by the …, priority 2022, published 2026).

How the values were obtained:
Type in all cases: in vivo
CCI-induced TBI mice [1] = test: CCI mouse model of TBI: DigiGait gait analysis; conditions: high dose 32.5 mg/kg; 1 week after CCI
Description: (§1) In vivo model of TBI: Mice were anesthetized with 2.5% tribromoethanol (Avertin: 250 mg/kg; Sigma, St. Louis, MO, USA) and placed in a stereotaxic frame (Kopf Instruments, Tujunga, CA, USA). A 4 mm craniotomy was performed using sterile procedures; the craniotomy point was selected midway between the lambda and bregma sutures and laterally midway between the central suture and the temporalis muscle. The skull fragment was then carefully removed without disruption of the underlying dura. Prior to injury induction, the tip of the impactor was angled and kept perpendicular to the exposed cortical surface. The mouse CCI instrument consisted of an electromagnetic impactor, Impact One (Leica Biosystems Inc., Buffalo Grove, IL, USA) that allows independent alteration of injury severity by controlling contact velocity and the level of cortical deformation. In these experiments, the contact velocity was set at 5.0 m/sec, the dwell time was set at 0.2 s and the deformation depth was set at 2 mm to produce a moderate TBI. The injury site was allowed to dry prior to suturing the wound. During surgery and recovery, the body temperature of the animals was maintained at 36-37° C. by using a heating pad. […] Mice were randomized following CCI to treatment with either of two doses of TFBP (16.25 mg/kg and 32.5 mg/kg, i.p.) or saline, and were dosed at 1 and 24 hr after the injury.
Behavioral assessment for motor functions and coordination: Behavioral tests were performed 1 week and 2 weeks after injury, to assess changes in motor functions and coordination. All tests were performed during the animals' light phase; cages were transported to testing rooms at least 30 min prior to testing.
Gait analysis: For the gait analysis, mice were tested on a fixed-speed treadmill apparatus (DigiGait; Mouse Specifics). Mice were habituated to the apparatus for 1 min, and then given a 1-min run at 5 cm/s. Following a 1-min rest, the treadmill speed was increased to 15 cm/s. Video was collected at high speed from a ventrally placed camera, and 3-5 s of representative gait video was selected by an experienced but blinded user for automated analysis.
(§2) In Vivo Model of TBI: TBI studies were conducted in 8-week-old male C57/BL6 mice (25-30 g; n=20), Jackson Laboratory, Bar Harbor, Maine USA. Mice were randomly assigned to four groups prior surgery, CMC+Sham, CMC+TBI, compound 30 (Low dose (LD), 14.78 mg/kg, prepared in 1% CMC in PBS)+TBI, compound 30 (High dose (HD), 29.57 mg/kg)+TBI, and evaluated the effects of compound 30 on TBI. Mice were assessed for gait function and motor coordination, balance function. Animals were subsequently evaluated for cellular changes using histological and immunohistochemistry staining. […]

CCI-induced TBI mice [2] = test: CCI mouse model of TBI: brain lesion and lateral ventricle size (Giemsa)
Description: as §1
Tissue processing: Two weeks after injury, mice were deeply anesthetized with isoflurane and perfused transcardially with 30 ml phosphate buffered saline (PBS). After removal, the brain was post-fixed with 4% PFA overnight then transferred to a 30% sucrose solution in PBS. […]
Quantification of brain lesion and lateral ventricle size in TBI animals: One set of brain sections 2-weeks post-CCI were mounted on slides. […] Brain image regions were quantified using ImageJ 1.52q software (National Institutes of Health, Bethesda, MD). […] There were 9 brain sections from each mouse counted by blinded observers, with regions starting from bregma at 0.86 to −1.46 mm.
as §2

CCI-induced TBI mice [3] = test: CCI mouse model of TBI: Iba1 microglia / GFAP astrocyte immunofluorescence (MotiQ)
Description: as §1
Tissue processing: Two weeks after injury, mice were deeply anesthetized with isoflurane and perfused transcardially with 30 ml phosphate buffered saline (PBS). After removal, the brain was post-fixed with 4% PFA overnight then transferred to a 30% sucrose solution in PBS. Coronal sections from the dorsal hippocampus and the posterior parietal cortex were cryosectioned at 25 μm thickness and stored in cryoprotectant solution for Giemsa staining and immunohistochemical analysis.
Immunofluorescence analysis: For GFAP and Iba1 quantification, brain samples were incubated overnight with either one of the following primary antibodies: anti-GFAP 1:2500 dilution (chicken polyclonal, Abcam, USA, cat #ab4674) or anti-Iba1 1:200 dilution (guinea pig polyclonal anti-Iba1, Synaptic System, USA, cat #234004). After PBS washing, sections were incubated for 1 hr at RT with a goat anti-chicken AlexaFluor® 488-conjugated secondary antibody IgY (H+L) 1:500 dilution (ThermoFisher, USA, cat #A-21432) for detection of GFAP, and with a Goat anti-Guinea Pig IgG (H+L) Highly Cross-Adsorbed Secondary Antibody, Alexa Fluor™ 555, ThermoFisher, USA, cat #A-21435) for detection of Iba1. Sections were washed in PBS and mounted with […]® Antifade Mounting Medium with DAPI (Vectorlabs, USA, cat #H-1200). Controls consisted of omission of the primary antibody. […] Multiple parameters were analyzed, including ramification index, spanned area, number of branches, junctions and endpoints.
as §2

| Compound | gait brake time (CCI-induced TBI mice [1]) | lateral ventricle size (CCI-induced TBI mice [2]; both doses, 2 weeks after TBI) | loss of cortical tissue (lesion volume) (CCI-induced TBI mice [2]; higher dose 32.5 mg/kg, 2 weeks after TBI) | loss of cortical tissue (lesion volume) (CCI-induced TBI mice [2]; lower dose 16.25 mg/kg, 2 weeks after TBI) | microglial morphology (ramification index, spanned area, end points, branches, junctions), ipsilateral side (CCI-induced TBI mice [3]; lower and higher dose, 2 weeks after CCI) | lesion size (CCI-induced TBI mice [2]; low dose 14.78 mg/kg, 2 weeks post-TBI, vs CMC) | number of astrocytes (GFAP) in cortex (CCI-induced TBI mice [3]; 14.78, 29.57 mg/kg, 2 weeks after TBI) | number of branches, junctions, endpoints of microglial processes (CCI-induced TBI mice [3]; 14.78, 29.57 mg/kg, ipsilateral cortex) | number of microglia induced by TBI (CCI-induced TBI mice [3]; cortex) | microglial ramification index and spanned area (CCI-induced TBI mice [3]; ipsilateral cortex, 2 weeks after TBI) |
| --- | --- | --- | --- | --- | --- | --- | --- | --- | --- | --- |
| CC1(C)[C@@H]2CC[C@@]1(C)[C@@H](N1C(=O)c3c(F)c(F)c(F)c(F)c3C1=O)C2 [Compound 14, 4,5,6,7-Tetrafluoro-2-((1R,2S,4R)-1,7,7-trimethylbicyclo[2.2.1]heptan-2-yl) isoindoline-1,3-dione] | fully mitigates this rise | did not reach statistical significance | failed to reach statistical significance | reduce loss of cortical tissue | substantially counteracted these CCI-induced microglial phenotypic measures | – | – | – | – | – |
| Nc1ccc(F)c2c1C(=S)N(C1CCC(=S)NC1=O)C2=O (stereo not shown) [Compound 30, 4-amino-7-fluoro-2-(2-oxo-6-thioxopiperidin-3-yl)-3-thioxoisoindolin-1-one] | – | – | – | – | – | significant reduction of the lesion size | significantly decreased the number of astrocytes | significantly rescue the morphological changes of microglia | subtle reduction, but not significant | significantly ameliorated the morphological alteration of microglia |
